How the values were obtained:
[1] = test system: ruminant mammals; conditions: intravenous use, including in the form of tributyrin; cited from earlier work
[2] = test system: C57BL/6J mice on high fat diet; assay: Butyrate at 2.5% w/w in HFD; assay type: in vivo, mouse; conditions: butyrate 2.5% w/w in HFD
Method: Sodium butyrate (#303410, Sigma) was tested at two dosages, 5% and 2.5% w/w in HFD. The metabolic effects presented above were from 5%. […] Insulin sensitivity at 12 weeks as indicated by insulin tolerance test (ITT) and glucose tolerance test (GTT) at 13 weeks was higher in the butyrate group than that of the control group (FIGS. 12C and 12D). For the glucose tolerance test, after an overnight fast, 2.5 g/kg glucose was injected intraperitoneally. Blood glucose was measured as described above at 0, 30, 60 and 120 min after injection. […] show values as the means±SE (N=8 in each group), and * indicates p<0.05.

[3] = test system: liver cells; conditions: isolated rat liver; cited from earlier work
[4] = test system: obese C57BL/6J mice on HFD; assay: Treatment of obese mice (16 weeks HFD) with butyrate for 5 weeks; assay type: in vivo, mouse
Method: In the above examples, butyrate was administrated together with HFD during the induction of obesity. To test butyrate in the treatment of obesity and insulin resistance, butyrate was administered to obese mice that had been on HFD for 16 weeks. Obesity was induced in C57BL/6J mice fed on HFD for 16 weeks (21 weeks in age). The obese mice were then treated with butyrate through food supplement for 5 weeks. […] In the control group, the body weight was increased by 15.8% (from 35.9 g to 41.6 g) during the same time period. Values are the means±SE (N=8 in each group). * P<0.05.
Fat content was determined in the body using NMR at the end of 5 week treatment with butyrate. Consistent with the change in body weight, the fat content was reduced by 10% in the butyrate group (FIG. 9B). At the end of 5 weeks, ITT was performed after 4 hours fast and HOMA IR was measured as described above. […] Values are the means±SE (N=8 in each group). * P<0.05.

[5] = test system: C57BL/6J mice on high fat diet; assay: Blood lipids and TNF-a in HFD mice; assay type: in vivo, mouse
Method: The serum fatty acids including butyrate were examined using a protocol described elsewhere (18), and as described below in Example 10. The fatty acids in feces were determined using a protocol as described by Schwarz (19). Triglyceride and cholesterol were measured in the whole blood with the Cardiochek portable test system.
Levels of cholesterol, total triglyceride and inflammation cytokines (TNF-a) were elevated in the blood of dietary obese mice. With 5% SB supplementation, these risk factors for cardiovascular disease were all reduced in the mice (FIG. 10A-E). Blood samples were taken from control and butyrate-supplemented mice at 10 weeks on HFD. The cholesterol, HDL (high density lipoprotein), LDL (low density lipoprotein), and triglyceride were measured with cholesterol reagent kit (cat #. 80015, Rainchem, San Diego, Calif.), and the Cardiochek whole blood test system (Polymer Technology Systems, Inc. IN). Data are presented as means±SEM (n=6). **P<0.001 by Student's t test.

With `CCCC(=O)[O-].[Na+]` [sodium butyrate] as the compound, how does the “serum glucose and insulin” value [1] read?
The value was “increase”.

And the body weight ([2]; 12 weeks)?
Its body weight is “reduced”.

What about the “insulin sensitivity by insulin tolerance test (ITT)” value ([2]; 12 weeks) of the same compound?
The value was “higher”.

And the fat content ([2]; 12 weeks, NMR)?
The fat content was “reduced”.

What about the “insulin sensitivity by glucose tolerance test (GTT)” value ([2]; 13 weeks, 2.5 g/kg glucose i.p.) of the same compound?
Its value is “higher”.

What about the “energy metabolism (liver cells)” value [3] of the same compound?
Its value is “impairment”.

And the “HOMA-IR, reduction” value ([4]; 5-week butyrate treatment)?
Its value is 50%.

What about the “fasting glucose, reduction” value ([4]; 5-week butyrate treatment) of the same compound?
Its value is 30%.

What about the “fasting glucose after treatment” value ([4]; 5-week butyrate treatment, from 131) of the same compound?
Its value is 98.6 mg/dL.

What about the “loss of original body weight” value ([4]; 5-week treatment with butyrate in food) of the same compound?
Its value is 10.2%.

And the ITT ([4]; end of 5-week butyrate treatment, 4 hours fast)?
The ITT was “improved significantly”.

What about the “fat content, reduction” value ([4]; end of 5-week butyrate treatment, NMR) of the same compound?
The value was 10%.

And the “body weight after treatment” value ([4]; end of 5-week butyrate treatment, from 37.6 g)?
Its value is 34.4 g.

What about the “LDL, reduction vs control” value ([5]; 5% SB in HFD, 10 weeks, blood) of the same compound?
The value was 41%.

What about the “Triglyceride, reduction vs control” value ([5]; 5% SB in HFD, 10 weeks, blood) of the same compound?
The value was 40%.

What about the “total cholesterol, reduction vs control” value ([5]; 5% SB in HFD, 10 weeks, blood) of the same compound?
The value was 25%.

What about the “TNF-a, reduction vs control” value ([5]; 5% SB in HFD, 10 weeks, blood, Luminex) of the same compound?
The value was 70%.

What about the “blood total fatty acids” value ([5]; butyrate 5% w/w in HFD) of the same compound?
Its value is “decreased”.
